The record followed here is ChEMBL document CHEMBL3259572, “Euodenine A: a small-molecule agonist of human TLR4” (J Med Chem, 2014).

Activity calls are given as the source filed them. The rule behind the calls is not given here.

For data set [1], the system named is PBMC. As to the kind of experiment: Induction of IL-8 production in human PBMC at 10 uM by ELISA. It counts as functional, cell-based. For orientation: An ELISA detects its analyte on a solid surface through an enzyme-linked reagent.
Data set [2] addresses T1, Toll-like receptor 4 (Homo sapiens, UniProt O00206). The data set is described as follows: Agonist activity at human recombinant TLR4 expressed in HEK293 cells coexpressed with mouse MD2 assessed as TNFalpha response by NFkappaB reporter assay. It counts as cell-based. (In a reporter assay the amount or activity of a reporter protein is the signal.)
The target of data set [3] is Toll-like receptor 3 (Homo sapiens) (UniProt O15455). As to the kind of experiment: Agonist activity at human recombinant TLR3 expressed in HEK293 cells at 10 uM by SEAP reporter assay. Format: cell-based.
The target of data set [4] is T2, Toll-like receptor 7 (Homo sapiens) (UniProt Q9NYK1).
T2 sequence (whole entry): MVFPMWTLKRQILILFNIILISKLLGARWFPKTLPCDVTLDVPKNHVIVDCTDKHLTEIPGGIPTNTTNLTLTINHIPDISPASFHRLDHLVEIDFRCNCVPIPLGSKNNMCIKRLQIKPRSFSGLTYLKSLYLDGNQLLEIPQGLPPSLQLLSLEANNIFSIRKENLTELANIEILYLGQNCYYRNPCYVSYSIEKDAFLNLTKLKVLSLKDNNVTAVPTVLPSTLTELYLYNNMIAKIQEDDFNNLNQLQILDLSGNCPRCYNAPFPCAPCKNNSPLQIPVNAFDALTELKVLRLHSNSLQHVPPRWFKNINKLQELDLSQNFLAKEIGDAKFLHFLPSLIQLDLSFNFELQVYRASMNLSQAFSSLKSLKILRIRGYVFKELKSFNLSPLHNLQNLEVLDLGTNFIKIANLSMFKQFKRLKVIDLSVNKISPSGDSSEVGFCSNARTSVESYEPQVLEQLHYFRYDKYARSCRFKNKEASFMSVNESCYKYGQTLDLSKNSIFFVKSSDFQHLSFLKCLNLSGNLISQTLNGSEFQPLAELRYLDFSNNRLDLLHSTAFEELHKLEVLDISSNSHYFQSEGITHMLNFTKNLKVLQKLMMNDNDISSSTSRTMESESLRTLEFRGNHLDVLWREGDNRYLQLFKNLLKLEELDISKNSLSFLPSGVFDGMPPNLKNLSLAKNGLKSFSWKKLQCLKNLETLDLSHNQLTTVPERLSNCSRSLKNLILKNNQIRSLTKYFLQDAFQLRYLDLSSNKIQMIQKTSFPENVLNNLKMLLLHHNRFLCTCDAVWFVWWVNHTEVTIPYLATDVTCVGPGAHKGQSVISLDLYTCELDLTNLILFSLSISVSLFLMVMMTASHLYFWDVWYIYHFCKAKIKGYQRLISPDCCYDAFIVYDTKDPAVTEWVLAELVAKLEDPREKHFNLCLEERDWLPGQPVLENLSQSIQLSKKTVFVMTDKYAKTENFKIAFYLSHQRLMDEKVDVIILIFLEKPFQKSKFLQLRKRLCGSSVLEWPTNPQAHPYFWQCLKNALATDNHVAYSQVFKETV
As to the kind of experiment: Agonist activity at human recombinant TLR7 expressed in HEK293 cells at 10 uM by SEAP reporter assay. It counts as cell-based.

Data set [5] concerns the target Toll-like receptor 5 (Homo sapiens) (UniProt O60602). The data set is described as follows: Agonist activity at human recombinant TLR5 expressed in HEK293 cells at 10 uM by SEAP reporter assay. Format: cell-based.
The test system of data set [6] is PBMC. As to the kind of experiment: Suppression of PHA-induced IL-5 release in human PBMC at 10 uM by ELISA. Format: functional, cell-based.
Data set [7] addresses T3, Toll-like receptor 8 (Homo sapiens) (UniProt Q9NR97).
T3 sequence (whole entry): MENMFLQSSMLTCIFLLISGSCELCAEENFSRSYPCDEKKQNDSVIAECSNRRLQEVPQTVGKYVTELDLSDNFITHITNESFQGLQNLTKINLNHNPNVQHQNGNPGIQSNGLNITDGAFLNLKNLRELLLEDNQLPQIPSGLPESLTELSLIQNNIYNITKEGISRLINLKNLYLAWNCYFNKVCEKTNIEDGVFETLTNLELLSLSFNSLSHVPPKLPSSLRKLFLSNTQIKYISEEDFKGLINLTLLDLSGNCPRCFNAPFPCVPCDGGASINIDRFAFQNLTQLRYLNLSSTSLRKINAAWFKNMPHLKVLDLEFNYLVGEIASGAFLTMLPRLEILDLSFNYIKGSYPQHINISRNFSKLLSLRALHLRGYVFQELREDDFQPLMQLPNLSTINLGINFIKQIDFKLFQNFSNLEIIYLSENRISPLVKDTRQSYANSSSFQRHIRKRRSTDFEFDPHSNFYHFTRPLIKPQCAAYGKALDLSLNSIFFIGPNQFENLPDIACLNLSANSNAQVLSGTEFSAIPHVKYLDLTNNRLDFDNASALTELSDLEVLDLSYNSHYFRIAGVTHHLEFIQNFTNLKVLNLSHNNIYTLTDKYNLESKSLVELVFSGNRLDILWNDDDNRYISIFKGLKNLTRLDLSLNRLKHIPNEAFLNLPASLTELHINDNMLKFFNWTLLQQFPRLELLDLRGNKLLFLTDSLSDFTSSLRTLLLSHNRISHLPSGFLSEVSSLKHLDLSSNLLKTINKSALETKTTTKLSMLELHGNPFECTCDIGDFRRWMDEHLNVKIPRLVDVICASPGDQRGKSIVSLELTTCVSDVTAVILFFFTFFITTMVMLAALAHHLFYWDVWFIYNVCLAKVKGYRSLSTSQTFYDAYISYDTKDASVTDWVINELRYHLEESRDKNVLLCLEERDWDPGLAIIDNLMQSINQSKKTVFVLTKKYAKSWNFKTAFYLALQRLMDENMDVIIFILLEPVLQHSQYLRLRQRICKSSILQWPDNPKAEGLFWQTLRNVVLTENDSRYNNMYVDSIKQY
As to the kind of experiment: Agonist activity at human recombinant TLR8 expressed in HEK293 cells at 10 uM by SEAP reporter assay. Format: cell-based.

The test system of data set [8] is HEK293. The data set is described as follows: Agonist activity at chimeric extracellular domain of human TLR4 fused with mouse intracellular domain expressed in HEK293 cells by NFkappaB reporter assay. Format: cell-based.
The nature of data set [9]: Cytotoxicity against human PBMC by WST-1 cell proliferation assay. Conditions: PBMC (peripheral blood mononuclear cells). Format: cell-based. (In general: Formazan colour is commonly taken as a measure of viable cells.)
The test system of data set [10] is PBMC. As to the kind of experiment: Induction of IL-12p40 production in human PBMC at 10 uM by ELISA. It counts as functional, cell-based.
The target of data set [11] is T1, Toll-like receptor 4. As to the kind of experiment: Agonist activity at human recombinant TLR4 expressed in HEK293 cells coexpressed with human MD2 assessed as TNFalpha response by NFkappaB reporter assay. It counts as cell-based.
Data set [12] deals with T1, Toll-like receptor 4. As to the kind of experiment: Agonist activity at chimeric extracellular domain of human TLR4 fused with human intracellular domain expressed in HEK293 cells by NFkappaB reporter assay. It counts as cell-based.

For orientation: CC50 means the concentration giving 50% cytotoxicity.

T1 sequence (O00206 whole entry): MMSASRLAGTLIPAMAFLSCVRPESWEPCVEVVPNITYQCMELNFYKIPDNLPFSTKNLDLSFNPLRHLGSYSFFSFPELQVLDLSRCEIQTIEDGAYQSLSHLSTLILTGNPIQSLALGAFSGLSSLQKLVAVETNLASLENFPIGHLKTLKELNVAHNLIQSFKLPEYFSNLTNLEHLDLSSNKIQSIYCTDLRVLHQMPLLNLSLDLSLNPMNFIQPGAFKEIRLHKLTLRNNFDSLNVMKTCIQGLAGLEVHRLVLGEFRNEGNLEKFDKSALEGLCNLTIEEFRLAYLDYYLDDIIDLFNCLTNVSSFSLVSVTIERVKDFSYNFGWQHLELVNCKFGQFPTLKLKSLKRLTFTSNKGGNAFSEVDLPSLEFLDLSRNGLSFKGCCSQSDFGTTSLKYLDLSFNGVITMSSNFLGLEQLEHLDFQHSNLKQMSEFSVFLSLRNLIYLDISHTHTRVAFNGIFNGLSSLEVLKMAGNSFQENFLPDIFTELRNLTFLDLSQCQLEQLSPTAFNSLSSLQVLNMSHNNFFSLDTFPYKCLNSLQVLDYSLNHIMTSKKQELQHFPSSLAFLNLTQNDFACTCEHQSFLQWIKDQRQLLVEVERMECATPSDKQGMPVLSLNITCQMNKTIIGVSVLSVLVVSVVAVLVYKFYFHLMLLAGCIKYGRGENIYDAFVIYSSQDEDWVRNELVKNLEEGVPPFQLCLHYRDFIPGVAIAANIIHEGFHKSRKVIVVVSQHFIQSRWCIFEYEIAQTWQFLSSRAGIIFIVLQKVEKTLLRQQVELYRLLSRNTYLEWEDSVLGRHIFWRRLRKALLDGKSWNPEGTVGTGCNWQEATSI
Sequence of Toll-like receptor 3 (Homo sapiens) (O15455 whole entry): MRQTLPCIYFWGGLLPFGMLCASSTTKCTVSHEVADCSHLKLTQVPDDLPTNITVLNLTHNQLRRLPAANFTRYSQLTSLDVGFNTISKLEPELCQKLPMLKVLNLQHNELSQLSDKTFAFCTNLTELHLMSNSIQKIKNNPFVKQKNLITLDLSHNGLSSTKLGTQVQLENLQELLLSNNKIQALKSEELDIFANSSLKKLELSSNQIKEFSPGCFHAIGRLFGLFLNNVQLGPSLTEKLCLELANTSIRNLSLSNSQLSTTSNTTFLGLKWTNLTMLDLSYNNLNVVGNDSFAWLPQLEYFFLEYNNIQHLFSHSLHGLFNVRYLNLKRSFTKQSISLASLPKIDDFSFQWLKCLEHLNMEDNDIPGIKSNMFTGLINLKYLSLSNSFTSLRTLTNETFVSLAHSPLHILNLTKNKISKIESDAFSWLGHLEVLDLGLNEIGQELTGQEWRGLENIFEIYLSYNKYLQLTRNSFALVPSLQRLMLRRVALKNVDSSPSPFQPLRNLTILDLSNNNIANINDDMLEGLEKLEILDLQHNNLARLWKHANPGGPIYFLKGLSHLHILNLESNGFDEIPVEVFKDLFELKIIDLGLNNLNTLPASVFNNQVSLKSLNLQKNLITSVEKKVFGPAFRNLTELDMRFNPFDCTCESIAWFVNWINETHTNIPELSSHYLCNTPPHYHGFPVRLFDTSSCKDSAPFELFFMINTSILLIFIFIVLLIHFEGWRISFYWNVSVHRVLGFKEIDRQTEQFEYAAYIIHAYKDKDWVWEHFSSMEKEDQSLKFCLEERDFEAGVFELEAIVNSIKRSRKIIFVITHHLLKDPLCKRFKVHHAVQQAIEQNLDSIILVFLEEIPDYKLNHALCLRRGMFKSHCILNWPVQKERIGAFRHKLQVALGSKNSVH
Sequence of Toll-like receptor 5 (Homo sapiens) (O60602 whole entry): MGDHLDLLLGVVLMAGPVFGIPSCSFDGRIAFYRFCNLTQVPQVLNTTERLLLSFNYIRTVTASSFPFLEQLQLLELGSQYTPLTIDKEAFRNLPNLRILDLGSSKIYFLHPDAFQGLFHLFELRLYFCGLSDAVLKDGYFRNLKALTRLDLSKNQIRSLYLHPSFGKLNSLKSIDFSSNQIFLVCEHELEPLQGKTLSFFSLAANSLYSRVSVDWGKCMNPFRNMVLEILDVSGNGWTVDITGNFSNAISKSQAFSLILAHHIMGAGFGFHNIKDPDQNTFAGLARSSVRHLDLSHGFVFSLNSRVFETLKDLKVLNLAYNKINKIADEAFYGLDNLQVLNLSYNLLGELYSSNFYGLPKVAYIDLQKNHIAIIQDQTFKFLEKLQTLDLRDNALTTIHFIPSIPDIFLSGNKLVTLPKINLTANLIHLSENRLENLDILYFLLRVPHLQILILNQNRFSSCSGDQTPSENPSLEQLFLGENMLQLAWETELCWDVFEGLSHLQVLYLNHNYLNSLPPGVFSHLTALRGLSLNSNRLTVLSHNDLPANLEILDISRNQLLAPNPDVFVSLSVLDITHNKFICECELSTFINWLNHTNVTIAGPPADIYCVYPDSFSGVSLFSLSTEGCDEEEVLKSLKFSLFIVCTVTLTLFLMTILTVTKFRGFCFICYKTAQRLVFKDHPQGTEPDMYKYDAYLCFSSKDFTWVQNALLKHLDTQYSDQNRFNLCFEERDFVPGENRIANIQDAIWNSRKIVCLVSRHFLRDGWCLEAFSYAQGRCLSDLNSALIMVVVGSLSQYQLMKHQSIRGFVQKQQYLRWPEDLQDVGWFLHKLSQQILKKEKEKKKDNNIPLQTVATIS

As for `COc1cc([C@@H]2[C@@H](C)[C@H]3[C@@H]2c2c(c4ccccc4[nH]c2=O)OC3(C)C)cc(OC)c1OC`, the result in data set [1], in data set [8], in [10], in data set [11] and in data set [12] was Active. Besides, the result in data set [2], in [3], in data set [4], in data set [5] and in data set [7] was inactive. Moreover, the inhibition result in data set [6] is “Active”. In data set [9], this compound returned a CC50 of more than 33 µM.
